Assay [1] deals with CysM (O-acetylserine sulfhydrylase) (Salmonella enterica, UniProt P29848). The assay is described as follows: recombinant enzyme, H2S consumption by HSip-1 fluorescence; confirmed by LC-MS/MS of cysteine production. Format: biochemical.
Assay [2] concerns the target CysK (O-acetylserine sulfhydrylase) (Salmonella enterica, UniProt P0A1E3). Described as above. The assay is classed as biochemical.

Chain of CysK (O-acetylserine sulfhydrylase) (P0A1E3 2-323): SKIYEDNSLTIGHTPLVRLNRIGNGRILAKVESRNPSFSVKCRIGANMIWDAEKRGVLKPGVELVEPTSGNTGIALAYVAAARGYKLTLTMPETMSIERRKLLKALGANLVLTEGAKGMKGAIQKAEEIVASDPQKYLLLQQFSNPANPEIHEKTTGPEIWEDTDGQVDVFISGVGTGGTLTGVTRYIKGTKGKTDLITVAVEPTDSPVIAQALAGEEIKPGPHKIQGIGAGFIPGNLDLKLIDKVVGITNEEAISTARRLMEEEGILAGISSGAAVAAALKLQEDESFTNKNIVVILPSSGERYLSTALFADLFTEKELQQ
Chain of CysM (O-acetylserine sulfhydrylase) (P29848 whole entry): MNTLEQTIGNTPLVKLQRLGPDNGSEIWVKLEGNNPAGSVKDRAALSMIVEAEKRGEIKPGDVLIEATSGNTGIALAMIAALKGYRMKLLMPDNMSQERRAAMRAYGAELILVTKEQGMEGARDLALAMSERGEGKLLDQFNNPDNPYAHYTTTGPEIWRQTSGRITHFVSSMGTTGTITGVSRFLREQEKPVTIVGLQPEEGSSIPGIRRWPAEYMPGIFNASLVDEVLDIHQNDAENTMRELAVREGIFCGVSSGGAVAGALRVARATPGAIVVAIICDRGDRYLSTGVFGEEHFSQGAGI

For `CN1C(=O)[C@]23CC4=CC=C[C@H](O)[C@H]4N2C(=O)[C@@]1(CO)SS3` [compound 1, gliotoxin], the half-inhibitory concentration (IC50) in assay [1] and in assay [2] was ~3 µM throughout.

What is called IC50 is the concentration that inhibits the measured activity by half.

Source of the values: publication PMC11818871, “Identification of Fungal Metabolite Gliotoxin as a Potent Inhibitor Against Bacterial O-Acetylserine Sulfhydrylase CysK and CysM” (International Journal of Molecular Sciences, 2025).
